Reference: the supplement of paper PMC13380429

Key:
[1] = test system: A549-ACE2 infected with SARS-CoV-2; assay: morphology score (similarity to uninfected cells); higher = more like uninfected cells; conditions: 24 h
Vero E6 [2] = assay: cell viability relative to DMSO; higher = less toxic; conditions: 72 h
U2OS [3] = assay: as above; conditions: 72 h
Calu-3 [4] = assay: as above; conditions: 72 h
HepG2 [5] = assay: as above; conditions: 72 h
Caco-2 [6] = assay: as above; conditions: 72 h
Vero E6 [7] = assay: relative viability EC50 (midpoint between 100% and the lowest measured viability); higher = less toxic; conditions: 72 h
U2OS [8] = assay: as above; conditions: 72 h
Calu-3 [9] = assay: as above; conditions: 72 h
HepG2 [10] = assay: as above; conditions: 72 h
Vero E6 [11] = assay: drug sensitivity score (DSS) for viability; higher = more toxic; extreme values may be limits of the assay; conditions: 72 h
U2OS [12] = assay: as above; conditions: 72 h
Calu-3 [13] = assay: as above; conditions: 72 h
HepG2 [14] = assay: as above; conditions: 72 h
Caco-2 [15] = assay: as above; conditions: 72 h
A549-ACE2 [16] = assay: drug-induced phospholipidosis relative to tamoxifen; higher = more phospholipidosis
A549-ACE2 [17] = assay: phospholipidosis EC50; higher = less potent phospholipidosis inducer
[18] = test system: A549-ACE2 infected with SARS-CoV-2; assay: SARS-CoV-2 infection rate relative to DMSO; higher = more infection; conditions: 24 h
[19] = test system: A549-ACE2 infected with SARS-CoV-2; assay: cell count relative to DMSO; higher = less toxic; conditions: 24 h
Caco-2 [20] = assay: relative viability EC50 (midpoint between 100% and the lowest measured viability); higher = less toxic; conditions: 72 h

Cc1cccc(/C=N/Nc2cc(N3CCOCC3)nc(OCCc3ccccn3)n2)c1 [STA-5326]
Conditions	SARS-CoV-2 infection rate [%]	cell count [%]	cell viability [%]	morphology score	phospholipidosis EC50 [µM]
A549-ACE2 [17], 24 h	–	–	–	–	0.3
A549-ACE2 [17], 48 h	–	–	–	–	0.809
A549-ACE2 [17], 72 h	–	–	–	–	0.687
Caco-2 [6], 1 nM	–	–	91.2	–	–
Caco-2 [6], 10 nM	–	–	96.4	–	–
Caco-2 [6], 100 nM	–	–	94.7	–	–
Caco-2 [6], 1000 nM	–	–	78.9	–	–
Caco-2 [6], 10000 nM	–	–	60.8	–	–
Calu-3 [4], 1 nM	–	–	104	–	–
Calu-3 [4], 10 nM	–	–	104	–	–
Calu-3 [4], 100 nM	–	–	97.9	–	–
Calu-3 [4], 1000 nM	–	–	93.6	–	–
Calu-3 [4], 10000 nM	–	–	90.1	–	–
HepG2 [5], 1 nM	–	–	99.3	–	–
HepG2 [5], 10 nM	–	–	88.2	–	–
HepG2 [5], 100 nM	–	–	93	–	–
HepG2 [5], 1000 nM	–	–	26.2	–	–
HepG2 [5], 10000 nM	–	–	19.7	–	–
U2OS [3], 1 nM	–	–	97.6	–	–
U2OS [3], 10 nM	–	–	100	–	–
U2OS [3], 100 nM	–	–	95	–	–
U2OS [3], 1000 nM	–	–	91.3	–	–
U2OS [3], 10000 nM	–	–	75.1	–	–
Vero E6 [2], 1 nM	–	–	97.2	–	–
Vero E6 [2], 10 nM	–	–	104	–	–
Vero E6 [2], 100 nM	–	–	93.8	–	–
Vero E6 [2], 1000 nM	–	–	42.4	–	–
Vero E6 [2], 10000 nM	–	–	43.2	–	–
[1], 0.3 µM	–	–	–	-0.01	–
[1], 3 µM	–	–	–	-0.14	–
[1], 10 µM	–	–	–	0	–
[1], 30 µM	–	–	–	0.18	–
[18], 0.3 µM	51	–	–	–	–
[18], 3 µM	77	–	–	–	–
[18], 10 µM	91	–	–	–	–
[18], 30 µM	35	–	–	–	–
[19], 0.3 µM	–	104	–	–	–
[19], 3 µM	–	95	–	–	–
[19], 10 µM	–	106	–	–	–
[19], 30 µM	–	108	–	–	–

Conditions	drug sensitivity score	relative viability EC50 [µM]
Caco-2 [15]	4.2	–
Calu-3 [9]	–	> 10
Calu-3 [13]	0	–
HepG2 [10]	–	0.308
HepG2 [14]	14.6	–
U2OS [8]	–	> 10
U2OS [12]	1.5	–
Vero E6 [7]	–	0.228
Vero E6 [11]	11.6	–

drug-induced phospholipidosis [%], A549-ACE2 [16]
Conditions	0.3 µM	0.833333 µM	3.33333 µM	6.66667 µM	10 µM	30 µM
24 h	103	105	105	124	111	85.7
48 h	104	80.8	58.2	63.7	66	–
72 h	113	59.5	34.8	46.3	59.3	–

CC1(C)CC[C@]2(C(=O)O)CC[C@]3(C)[C@H](C(=O)C=C4[C@@]5(C)C=C(C#N)C(=O)C(C)(C)[C@@H]5CC[C@]43C)[C@@H]2C1 [bardoxolone]
Conditions	SARS-CoV-2 infection rate, [18] [%]	cell count, [19] [%]	cell viability, Caco-2 [6] [%]	cell viability, Calu-3 [4] [%]	cell viability, HepG2 [5] [%]	cell viability, U2OS [3] [%]	cell viability, Vero E6 [2] [%]	morphology score, [1]
1 nM	–	–	91.3	102	98.2	101	101	–
10 nM	–	–	107	104	92.1	104	102	–
0.1 µM	97	101	–	–	–	–	–	0.07
100 nM	–	–	78.1	102	89.7	102	111	–
0.3 µM	99	91	–	–	–	–	–	-0.05
1 µM	99	89	–	–	–	–	–	-0.09
1000 nM	–	–	83.8	92.5	62.8	72.3	104	–
3 µM	115	94	–	–	–	–	–	-0.26
10000 nM	–	–	82.9	15.5	5.4	12	18.3	–

Conditions	drug sensitivity score	relative viability EC50 [µM]
Caco-2 [15]	5.3	–
Caco-2 [20]	–	> 10
Calu-3 [9]	–	2.44
Calu-3 [13]	5.9	–
HepG2 [10]	–	1.28
HepG2 [14]	9.5	–
U2OS [8]	–	1.37
U2OS [12]	8.9	–
Vero E6 [7]	–	3.43
Vero E6 [11]	4.2	–

drug-induced phospholipidosis [%], A549-ACE2 [16]
Conditions	0.3 µM	0.833333 µM	3.33333 µM	6.66667 µM	10 µM
24 h	-1.07	-5.8	7.86	18.2	-6.56
48 h	-3.77	-7.72	1.1	–	–
72 h	-2.71	-7.17	–	–	–
